# Measurements taken from the NIST ThermoML archive (doi:10.1021/je9006234).
# ± gives the expanded uncertainty stated by the source.
# Conditions: 298.15 K; 101.33 kPa; Liquid
row,Structure (SMILES),mass density [kg/m3]
1,c1ccc2[nH]ccc2c1 [1H-indole],1216.68 ± 1.3
2,Nc1ccccc1 [aniline],1017.42 ± 0.19
3,c1ccncc1 [pyridine],978.25 ± 0.27

# Now from value to compound:
row,mass density [kg/m3],Structure (SMILES)
1,944.21 ± 0.23,CN(C)C=O [dimethylformamide]
2,773.19 ± 0.32,CCCCCCCCCCCCCCCC [hexadecane]
3,965.9 ± 2.9,c1cc[nH]c1 [pyrrole]
4,1089.45 ± 0.31,c1ccc2ncccc2c1 [quinoline]
